# Experiments:
# FES^S700C [1] = molecular target: T1, FES^S700C (Homo sapiens, UniProt P07332, S700C); assay: PamChip microarray peptide phosphorylation; format: biochemical; parameters: human FES cDNA encoding residues 448–822 or human FER cDNA encoding residues 448–820 was amplified by PCR; made in house; host or cells: E. coli BL21(DE3), co-expressing YopH phosphatase; settings: peptide substrate phosphorylated by FES - S700C
# FES^S700C [2] = molecular target: T1, FES^S700C; assay: In vitro TR-FRET kinase assay; format: biochemical; parameters: human FES cDNA encoding residues 448–822 or human FER cDNA encoding residues 448–820 was amplified by PCR; made in house; host or cells: E. coli BL21(DE3), co-expressing YopH phosphatase; settings: for Apparent fold selectivity: IC50 on FES^WT divided by IC50 on FES^S700C; for IC50: read-out: pIC50 FES^S700C (converted); for Residual activity (%): FES S700C, mean, n=3
# T1 sequence (P07332 448-822 S700C): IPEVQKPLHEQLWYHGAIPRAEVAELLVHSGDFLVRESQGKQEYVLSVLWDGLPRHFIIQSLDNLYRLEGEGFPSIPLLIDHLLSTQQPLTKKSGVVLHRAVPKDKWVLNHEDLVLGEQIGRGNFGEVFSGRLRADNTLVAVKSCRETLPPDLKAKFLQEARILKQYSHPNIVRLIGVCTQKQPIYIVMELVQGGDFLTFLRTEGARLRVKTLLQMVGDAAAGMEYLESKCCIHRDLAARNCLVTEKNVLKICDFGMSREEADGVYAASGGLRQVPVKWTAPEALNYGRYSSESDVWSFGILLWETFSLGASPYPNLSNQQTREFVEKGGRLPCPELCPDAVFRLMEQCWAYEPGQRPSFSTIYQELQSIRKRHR
molecule,measurement,setting,value
"STAT1_694_706 (DGPKGTGYIKTEL; UniProt P42224 694-706, looked up, fragment)",Relative phosphorylation (% of highest signal),FES^S700C [1],-0.9 % of highest signal
COc1ccccc1Nc1ncc(Cl)c(Nc2ccccc2S(=O)(=O)C(C)C)n1 [Compound 2],Apparent fold selectivity,FES^S700C [2],2.5 fold
same,IC50,"FES^S700C [2]; TR-FRET assay, 5 µM ATP, n = 3",15.8 nM
"EPHA2_581_593 (QLKPLKTYVDPHT; UniProt P29317 581-593, looked up, fragment)",Relative phosphorylation (% of highest signal),FES^S700C [1],0.144 % of highest signal
"VGFR1_1206_1218 (GSSDDVRYVNAFK; UniProt P17948 1206-1218, looked up, fragment)",Relative phosphorylation (% of highest signal),FES^S700C [1],0.24 % of highest signal
"NTRK2_509_521 (PVIENPQYFGITN; UniProt Q16620 509-521, looked up, fragment)",Relative phosphorylation (% of highest signal),FES^S700C [1],-1.0 % of highest signal
"VINC_815_827 (KSFLDSGYRILGA; UniProt P18206 815-827, looked up, fragment)",Relative phosphorylation (% of highest signal),FES^S700C [1],0.6 % of highest signal
"VGFR1_1235_1247 (ATSMFDDYQGDSS; UniProt P17948 1235-1247, looked up, fragment)",Relative phosphorylation (% of highest signal),FES^S700C [1],-0.074 % of highest signal
"VGFR2_1168_1180 (AQQDGKDYIVLPI; UniProt P35968 1168-1180, looked up, fragment)",Relative phosphorylation (% of highest signal),FES^S700C [1],9.5 % of highest signal
"ZBT16_621_633 (LRTHNGASPYQCT; UniProt Q05516 621-633, looked up, fragment)",Relative phosphorylation (% of highest signal),FES^S700C [1],1.1 % of highest signal
C=CC(=O)Nc1cccc(Nc2nc(Nc3ccccc3OC)ncc2Cl)c1 [Supplementary Figure 1d],Residual activity (%),FES^S700C [2]; log[inhibitor] (M) = -5,-0.2497%
same,Residual activity (%),FES^S700C [2]; log[inhibitor] (M) = -5.52288,-0.5097%
same,Residual activity (%),FES^S700C [2]; log[inhibitor] (M) = -6,-0.8205%
same,Residual activity (%),FES^S700C [2]; log[inhibitor] (M) = -6.52288,-0.4059%
same,Residual activity (%),FES^S700C [2]; log[inhibitor] (M) = -7,-0.7051%
same,Residual activity (%),FES^S700C [2]; log[inhibitor] (M) = -7.52288,-0.1368%
same,Residual activity (%),FES^S700C [2]; log[inhibitor] (M) = -8,11.6016%
same,Residual activity (%),FES^S700C [2]; log[inhibitor] (M) = -8.52288,70.8547%
same,Residual activity (%),FES^S700C [2]; log[inhibitor] (M) = -9,85.0509%
same,Residual activity (%),FES^S700C [2]; log[inhibitor] (M) = -9.52288,98.0879%
same,Residual activity (%),FES^S700C [2]; log[inhibitor] (M) = -10,85.4934%
same,Residual activity (%),FES^S700C [2]; log[inhibitor] (M) = -10.5229,94.4068%
same,Residual activity (%),FES^S700C [2]; log[inhibitor] (M) = -11,106.971%
"STA5A_687_699 (LAKAVDGYVKPQI; UniProt P42229 687-699, looked up, fragment)",Relative phosphorylation (% of highest signal),FES^S700C [1],-0.9 % of highest signal
"AMPE_5_17 (EREGSKRYCIQTK; UniProt Q07075 5-17, looked up, fragment)",Relative phosphorylation (% of highest signal),FES^S700C [1],-0.5 % of highest signal
"VGFR2_1207_1219_C1208S (VSDPKFHYDNTAG; UniProt P35968 1207-1219, looked up, variant C1208S)",Relative phosphorylation (% of highest signal),FES^S700C [1],1.3 % of highest signal
"MBP_259_271 (FGYGGRASDYKSA; UniProt P02686 259-271, looked up, fragment)",Relative phosphorylation (% of highest signal),FES^S700C [1],-0.258 % of highest signal
COc1ccccc1Nc1ncc(Cl)c(Nc2ccccc2S(=O)(=O)C(C)C)n1 [Supplementary Figure 1c],Residual activity (%),FES^S700C [2]; log[inhibitor] (M) = -5,0.2233%
same,Residual activity (%),FES^S700C [2]; log[inhibitor] (M) = -5.52288,0.2556%
same,Residual activity (%),FES^S700C [2]; log[inhibitor] (M) = -6,-0.06933%
same,Residual activity (%),FES^S700C [2]; log[inhibitor] (M) = -6.52288,4.851%
same,Residual activity (%),FES^S700C [2]; log[inhibitor] (M) = -7,14.3041%
same,Residual activity (%),FES^S700C [2]; log[inhibitor] (M) = -7.52288,33.9502%
same,Residual activity (%),FES^S700C [2]; log[inhibitor] (M) = -8,66.7428%
same,Residual activity (%),FES^S700C [2]; log[inhibitor] (M) = -8.52288,88.3714%
same,Residual activity (%),FES^S700C [2]; log[inhibitor] (M) = -9,94.1217%
same,Residual activity (%),FES^S700C [2]; log[inhibitor] (M) = -9.52288,96.7458%
same,Residual activity (%),FES^S700C [2]; log[inhibitor] (M) = -10,89.1056%
same,Residual activity (%),FES^S700C [2]; log[inhibitor] (M) = -10.5229,99.8276%
same,Residual activity (%),FES^S700C [2]; log[inhibitor] (M) = -11,106.567%
"VGFR2_989_1001 (EEAPEDLYKDFLT; UniProt P35968 989-1001, looked up, fragment)",Relative phosphorylation (% of highest signal),FES^S700C [1],14.2 % of highest signal
"DDR1_506_518 (LLLSNPAYRLLLA; UniProt Q08345 506-518, looked up, fragment)",Relative phosphorylation (% of highest signal),FES^S700C [1],-0.9 % of highest signal
"EPHA4_921_933 (QAIKMDRYKDNFT; UniProt P54764 921-933, looked up, fragment)",Relative phosphorylation (% of highest signal),FES^S700C [1],-0.7 % of highest signal
"VGFR3_1061_1073 (DIYKDPDYVRKGS; UniProt P35916 1061-1073, looked up, fragment)",Relative phosphorylation (% of highest signal),FES^S700C [1],0.1 % of highest signal
"STAT6_634_646 (MGKDGRGYVPATI; UniProt P42226 634-646, looked up, fragment)",Relative phosphorylation (% of highest signal),FES^S700C [1],-0.6 % of highest signal
"VGFR2_1046_1058 (DFGLARDIYKDPD; UniProt P35968 1046-1058, looked up, fragment)",Relative phosphorylation (% of highest signal),FES^S700C [1],2.1 % of highest signal
CCC(=O)Nc1ccccc1Nc1nc(Nc2ccccc2OC)ncc1Cl [Supplementary Figure 1f],Residual activity (%),FES^S700C [2]; log[inhibitor] (M) = -5,51.0323%
same,Residual activity (%),FES^S700C [2]; log[inhibitor] (M) = -5.52288,52.0081%
same,Residual activity (%),FES^S700C [2]; log[inhibitor] (M) = -6,80.9285%
same,Residual activity (%),FES^S700C [2]; log[inhibitor] (M) = -6.52288,101.29%
same,Residual activity (%),FES^S700C [2]; log[inhibitor] (M) = -7,99.7119%
same,Residual activity (%),FES^S700C [2]; log[inhibitor] (M) = -7.52288,103.019%
same,Residual activity (%),FES^S700C [2]; log[inhibitor] (M) = -8,101.749%
"EPOR_361_373 (SEHAQDTYLVLDK; UniProt P19235 361-373, looked up, fragment)",Relative phosphorylation (% of highest signal),FES^S700C [1],5.7 % of highest signal
"STAT4_686_698 (TERGDKGYVPSVF; UniProt Q14765 686-698, looked up, fragment)",Relative phosphorylation (% of highest signal),FES^S700C [1],-0.317 % of highest signal
CCC(=O)Nc1ccccc1Nc1nc(Nc2ccccc2OC)ncc1Cl [Compound 5],pIC50 FES^S700C,"FES^S700C [2]; TR-FRET assay, 5 µM ATP, n = 3",low inhibitory potency
same,IC50,"FES^S700C [2]; TR-FRET assay, 5 µM ATP, n = 3",6310 nM
C=CC(=O)Nc1ccccc1Nc1nc(Nc2ccccc2OC)ncc1Cl [Supplementary Figure 1e],Residual activity (%),FES^S700C [2]; log[inhibitor] (M) = -5,5.657%
same,Residual activity (%),FES^S700C [2]; log[inhibitor] (M) = -5.52288,10.8053%
same,Residual activity (%),FES^S700C [2]; log[inhibitor] (M) = -6,28.2387%
same,Residual activity (%),FES^S700C [2]; log[inhibitor] (M) = -6.52288,69.3014%
same,Residual activity (%),FES^S700C [2]; log[inhibitor] (M) = -7,75.3706%
same,Residual activity (%),FES^S700C [2]; log[inhibitor] (M) = -7.52288,96.1185%
same,Residual activity (%),FES^S700C [2]; log[inhibitor] (M) = -8,98.0581%
same,Residual activity (%),FES^S700C [2]; log[inhibitor] (M) = -8.52288,106.349%
same,Residual activity (%),FES^S700C [2]; log[inhibitor] (M) = -9,109.01%
same,Residual activity (%),FES^S700C [2]; log[inhibitor] (M) = -9.52288,116.606%
same,Residual activity (%),FES^S700C [2]; log[inhibitor] (M) = -10,111.768%
same,Residual activity (%),FES^S700C [2]; log[inhibitor] (M) = -10.5229,102.117%
same,Residual activity (%),FES^S700C [2]; log[inhibitor] (M) = -11,99.3612%
"PERI_458_470 (QRSELDKSSAHSY; UniProt P41219 458-470, looked up, fragment)",Relative phosphorylation (% of highest signal),FES^S700C [1],-1.0 % of highest signal
"ZAP70_485_497 (ALGADDSYYTARS; UniProt P43403 485-497, looked up, fragment)",Relative phosphorylation (% of highest signal),FES^S700C [1],7.2 % of highest signal
"EFS_246_258_Y253F (GGTDEGIFDVPLL; UniProt O43281 246-258, looked up, fragment Y253F)",Relative phosphorylation (% of highest signal),FES^S700C [1],-1.4 % of highest signal
"VGFR1_1320_1332_C1320K/C1321K (KKSPPPDYNSVVL; UniProt P17948 1320-1332, looked up, variant C1320K C1321K)",Relative phosphorylation (% of highest signal),FES^S700C [1],4.5 % of highest signal
Nc1ncnc2c1ncn2[C@@H]1O[C@H](COP(=O)(O)OP(=O)(O)OP(=O)(O)O)[C@@H](O)[C@H]1O [ATP],Km,"FES^S700C [2]; FES^S700C, TR-FRET, 60 min, read-out: ATP KM",790 nM
"VGFR1_1162_1174 (VQQDGKDYIPINA; UniProt P17948 1162-1174, looked up, fragment)",Relative phosphorylation (% of highest signal),FES^S700C [1],4.4 % of highest signal
C=CC(=O)Nc1ccccc1Nc1nc(Nc2ccccc2OC)ncc1Cl [Compound 4],Apparent fold selectivity,FES^S700C [2],238 fold
same,IC50,"FES^S700C [2]; TR-FRET assay, 5 µM ATP, n = 3",3.98 nM
"MK01_198_210 (IMLNSKGYTKSID; UniProt P28482 198-210, looked up, fragment)",Relative phosphorylation (% of highest signal),FES^S700C [1],-1.1 % of highest signal
"VGFR1_1046_1058_Y1048F (DIFKNPDYVRKGD; UniProt P17948 1046-1058, looked up, variant Y1048F)",Relative phosphorylation (% of highest signal),FES^S700C [1],-0.9 % of highest signal
"NPT2A_501_513 (AKALGKRTAKYRW; UniProt Q06495 501-513, looked up, fragment)",Relative phosphorylation (% of highest signal),FES^S700C [1],0.557 % of highest signal
"ODBA_340_352_D340K (KDSSAYRSVDEVN; UniProt P12694 340-352, looked up, variant D340K)",Relative phosphorylation (% of highest signal),FES^S700C [1],-0.7 % of highest signal
"MBP_263_275 (GRASDYKSAHKGF; UniProt P02686 263-275, looked up, fragment)",Relative phosphorylation (% of highest signal),FES^S700C [1],-0.5 % of highest signal
"VGFR2_944_956 (RFRQGKDYVGAIP; UniProt P35968 944-956, looked up, fragment)",Relative phosphorylation (% of highest signal),FES^S700C [1],1.4 % of highest signal
"VGFR1_1049_1061 (KNPDYVRKGDTRL; UniProt P17948 1049-1061, looked up, fragment)",Relative phosphorylation (% of highest signal),FES^S700C [1],-0.7 % of highest signal
ART_004_EAIYAAPFAKKKXC,Relative phosphorylation (% of highest signal),FES^S700C [1],8.3 % of highest signal

# Source: paper PMC7316778 (Nature Communications, 2020)
